The target of one experiment is human Factor Xa (Homo sapiens, UniProt P00742). Nature of the experiment: In vitro assay for inhibition of Factor Xa (fluorogenic assay, Rhodamine 110 bis-Cbz-glycylglycyl-L-arginine amide substrate). The note with it: for Factor Xa inhibitory activity: human Factor Xa 0.0003 U.ml-1, substrate 10 μM, 15 min preincubation, room temperature, pH 7.4; for Ki: Ki=IC50/(1+[Substrate]/Km), i.e. IC50 divided by 1.6, human Factor Xa fluorogenic assay. The class given is biochemical. How it is done: Compounds of the present invention were tested for their Factor Xa inhibitory activity as determined in vitro by their ability to inhibit human Factor Xa in a fluorogenic assay, using Rhodamine 110, bis-Cbz-glycylglycyl-L-arginine amide as the fluorogenic substrate. Compounds were diluted from a 10 mM stock solution in dimethylsulfoxide at appropriate concentrations. Assay was performed at room temperature using buffer consisting of: 50 mM Tris-HCl, 150 mM NaCl, 5 mM CaCl2, pH 7.4 containing human Factor Xa (final concentration of 0.0003 U.ml-1). Compound and enzyme were preincubated for 15 min prior to addition of the substrate (final concentration of 10 μM). The reaction was stopped after 3 hrs with the addition of H-D-Phe-Pro-Arg-Chloromethylketone. An LJL-Analyst fluorimeter was used to monitor fluorescence with 485 nm excitation/535 nm emission. To obtain IC50 values the data were analysed using ActivityBase® and XLfit®.
human Factor Xa, sequence (P00742 235-488 limits assumed): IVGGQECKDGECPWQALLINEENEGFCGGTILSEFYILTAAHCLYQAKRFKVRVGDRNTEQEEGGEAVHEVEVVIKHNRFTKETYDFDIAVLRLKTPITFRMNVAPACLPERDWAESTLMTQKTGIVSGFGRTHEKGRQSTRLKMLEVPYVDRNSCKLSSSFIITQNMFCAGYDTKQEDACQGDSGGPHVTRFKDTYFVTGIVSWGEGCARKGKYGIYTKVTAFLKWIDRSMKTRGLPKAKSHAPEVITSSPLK
human Factor Xa, sequence (P00742 41-179 partner limits assumed): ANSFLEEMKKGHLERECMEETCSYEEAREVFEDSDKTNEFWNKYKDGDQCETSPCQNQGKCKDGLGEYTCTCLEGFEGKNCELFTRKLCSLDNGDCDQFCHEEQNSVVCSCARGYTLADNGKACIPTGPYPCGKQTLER
Ki=IC50/(1+[Substrate]/Km)
The Ki value for the above assay can be obtained by dividing the IC50 value by 1.6.

A further experiment deals with human plasma. The experiment is described as follows: Measurement of Prothrombin Time (PT), time to clot formation in plasma. The note with it: pooled plasma from 4 donors, test compound 0.03 to 100 uM, Thromboplastin C Plus. Here is the method: Blood was collected into a sodium citrate solution (ratio 9:1) to give a final concentration of 0.38% citrate. Plasma was generated by centrifugation of citrated blood samples at 1200×g for 20 min at 4° C. and stored at −20° C. until use.
The PT test was performed using the BCS Coagulation Analyzer (Dade Behring). For assay, 50 ul of plasma containing test compound at concentrations ranging from 0.03 to 100 uM (made from a 100 uM stock containing 1% DMSO in plasma) was combined with 100 ul of Thromboplastin C Plus (Dade Behring). Upon addition of the reagents, absorbance at 405 nm was monitored and time to clot formation is determined (normal range for human plasma is 10.6-12.4 seconds).

SMILES strings stand for the structures. Counter-ions that a name gives are not always drawn.

Regarding `Cl.O=C1[C@@H](NS(=O)(=O)c2ccc3cc(Cl)ccc3c2)CCN1c1ccc2c(c1)CCNC2` [Example 1, 6-Chloro-N-[(3S)-2-oxo-1-(1,2,3,4-tetrahydro-6-isoquinolinyl)-3-pyrrolidinyl]-2-naphthalenesulfonamide hydrochloride], the “Factor Xa inhibitory activity” value at human Factor Xa is recorded as “exhibit Factor Xa inhibitory activity”. For the same molecule, the “activity in prothrombin time (PT) test” value with human plasma is reported as “exhibit activity”.

Regarding `Cl.O=C1[C@@H](NS(=O)(=O)/C=C/c2ccc(Cl)s2)CCN1c1ccc2c(c1)CCNC2` [Example 2, (E)-2-(5-Chloro-2-thienyl)-N-[(3S)-2-oxo-1-(1,2,3,4-tetrahydro-6-isoquinolinyl)-3-pyrrolidinyl]ethenesulfonamide hydrochloride], on human Factor Xa, the “Factor Xa inhibitory activity” value is recorded as “exhibit Factor Xa inhibitory activity”. For the same molecule, in the experiment on human plasma, the “activity in prothrombin time (PT) test” value was “exhibit activity”.

On to `Cl.O=C1[C@@H](NS(=O)(=O)c2cc3ccc(Cl)cc3s2)CCN1c1ccc2c(c1)CCNC2` [Example 3, 6-Chloro-N-[(3S)-2-oxo-1-(1,2,3,4-tetrahydro-6-isoquinolinyl)-3-pyrrolidinyl]-1-benzothiophene-2-sulfonamide hydrochloride], for which, at human Factor Xa, the Ki is less than 0.01 µM and the “Factor Xa inhibitory activity” value is “exhibit Factor Xa inhibitory activity”. Further, the “activity in prothrombin time (PT) test” value with human plasma is “exhibit activity”.

With `O=C1[C@@H](NS(=O)(=O)c2ccc3c(Cl)c[nH]c3c2)CCN1c1ccc2c(c1)CCNC2.O=CO` [Example 4, 3-Chloro-N-[(3S)-2-oxo-1-(1,2,3,4-tetrahydro-6-isoquinolinyl)-3-pyrrolidinyl]-1H-indole-6-sulfonamide formate], the “Factor Xa inhibitory activity” value on human Factor Xa is given as “exhibit Factor Xa inhibitory activity”. Also, in the experiment on human plasma, the “activity in prothrombin time (PT) test” value is “exhibit activity”.

Turning to `O=C1[C@@H](NS(=O)(=O)c2ccc3cc[nH]c3c2)CCN1c1ccc2c(c1)CCNC2.O=CO` [Example 5, N-[(3S)-2-Oxo-1-(1,2,3,4-tetrahydro-6-isoquinolinyl)-3-pyrrolidinyl]-1H-indole-6-sulfonamide formate], the “activity in prothrombin time (PT) test” value with human plasma is recorded as “exhibit activity”.

As for `O=C1[C@@H](NS(=O)(=O)c2cc3ccc(Cl)cc3[nH]2)CCN1c1ccc2c(c1)CCNC2.O=CO` [Example 6, 6-Chloro-N-[(3S)-2-oxo-1-(1,2,3,4-tetrahydro-6-isoquinolinyl)-3-pyrrolidinyl]-1H-indole-2-sulfonamide formate], at human Factor Xa, the Ki was less than 0.01 µM and the “Factor Xa inhibitory activity” value is on record as “exhibit Factor Xa inhibitory activity”. For the same molecule, the “activity in prothrombin time (PT) test” value in the experiment on human plasma is “exhibit activity”.

As to `CN1CCc2cc(N3CC[C@H](NS(=O)(=O)/C=C/c4ccc(Cl)s4)C3=O)ccc2C1.O=CO` [Example 7, (E)-2-(5-Chloro-2-thienyl)-N-[(3S)-1-(2-methyl-1,2,3,4-tetrahydro-6-isoquinolinyl)-2-oxo-3-pyrrolidinyl]ethenesulfonamide formate], the “Factor Xa inhibitory activity” value on human Factor Xa is “exhibit Factor Xa inhibitory activity”. The “activity in prothrombin time (PT) test” value with human plasma is “exhibit activity”.

For the molecule `CN1CCc2cc(N3CC[C@H](NS(=O)(=O)c4cc5ccc(Cl)cc5s4)C3=O)ccc2C1.O=CO` [Example 8, 6-Chloro-N-[(3S)-1-(2-methyl-1,2,3,4-tetrahydro-6-isoquinolinyl)-2-oxo-3-pyrrolidinyl]-1-benzothiophene-2-sulfonamide formate], on human Factor Xa, the Ki is less than 0.01 µM and the “Factor Xa inhibitory activity” value is given as “exhibit Factor Xa inhibitory activity”. In the experiment on human plasma, the “activity in prothrombin time (PT) test” value is “exhibit activity”.

`O=C1[C@@H](NS(=O)(=O)c2cc3cc(Cl)ccc3s2)CCN1c1ccc2c(c1)CCNC2` [Example 9, 5-Chloro-N-[(3S)-2-oxo-1-(1,2,3,4-tetrahydro-6-isoquinolinyl)-3-pyrrolidinyl]-1-benzothiophene-2-sulfonamide trifluoroacetate]: the “Factor Xa inhibitory activity” value on human Factor Xa is listed as “exhibit Factor Xa inhibitory activity”. In addition, the “activity in prothrombin time (PT) test” value in the experiment with human plasma was “exhibit activity”.

With `Cl.O=C1[C@@H](NS(=O)(=O)c2ccc(-c3ccc(Cl)s3)s2)CCN1c1ccc2c(c1)CCNC2` [Example 10, 5′-Chloro-N-[(3S)-2-oxo-1-(1,2,3,4-tetrahydro-6-isoquinolinyl)-3-pyrrolidinyl]-2,2′-bithiophene-5-sulfonamide hydrochloride], at human Factor Xa, the “Factor Xa inhibitory activity” value was “exhibit Factor Xa inhibitory activity”. For the same molecule, the “activity in prothrombin time (PT) test” value with human plasma was “exhibit activity”.

Turning to `Cl.O=C1[C@@H](NS(=O)(=O)c2ccc3cc(Cl)ccc3c2)CCN1c1ccc2c(c1)CNCC2` [Example 11, 6-Chloro-N-[(3S)-2-oxo-1-(1,2,3,4-tetrahydro-7-isoquinolinyl)-3-pyrrolidinyl]-2-naphthalenesulfonamide hydrochloride], on human Factor Xa, the “Factor Xa inhibitory activity” value is listed as “exhibit Factor Xa inhibitory activity”. For the same molecule, the “activity in prothrombin time (PT) test” value with human plasma is on record as “exhibit activity”.

As for `Cl.O=C1[C@@H](NS(=O)(=O)CCc2ccc(Cl)s2)CCN1c1ccc2c(c1)CNCC2` [Example 12, 2-(5-Chloro-2-thienyl)-N-[(3S)-2-oxo-1-(1,2,3,4-tetrahydro-7-isoquinolinyl)-3-pyrrolidinyl]ethanesulfonamide hydrochloride], the “Factor Xa inhibitory activity” value at human Factor Xa is given as “exhibit Factor Xa inhibitory activity”. In the experiment with human plasma, the “activity in prothrombin time (PT) test” value is “exhibit activity”.

As for `Cl.O=C1[C@@H](NS(=O)(=O)/C=C/c2ccc(Cl)s2)CCN1c1ccc2c(c1)CNCC2` [Example 13, (E)-2-(5-Chloro-2-thienyl)-N-[(3S)-2-oxo-1-(1,2,3,4-tetrahydro-7-isoquinolinyl)-3-pyrrolidinyl]ethenesulfonamide hydrochloride], at human Factor Xa, the “Factor Xa inhibitory activity” value is on record as “exhibit Factor Xa inhibitory activity”. Also, in the experiment with human plasma, the “activity in prothrombin time (PT) test” value is listed as “exhibit activity”.

For the molecule `O=C1[C@@H](NS(=O)(=O)c2ccc3c(Cl)c[nH]c3c2)CCN1c1ccc2c(c1)CNCC2.O=CO` [Example 14, 3-Chloro-N-[(3S)-2-oxo-1-(1,2,3,4-tetrahydro-7-isoquinolinyl)-3-pyrrolidinyl]-1H-indole-6-sulfonamide formate], the “Factor Xa inhibitory activity” value at human Factor Xa is listed as “exhibit Factor Xa inhibitory activity”. Also, the “activity in prothrombin time (PT) test” value in the experiment on human plasma is “exhibit activity”.

For the molecule `O=C1[C@@H](NS(=O)(=O)c2ccc3cc[nH]c3c2)CCN1c1ccc2c(c1)CNCC2.O=CO` [Example 15, N-[(3S)-2-Oxo-1-(1,2,3,4-tetrahydro-7-isoquinolinyl)-3-pyrrolidinyl]-1H-indole-6-sulfonamide formate], the “Factor Xa inhibitory activity” value on human Factor Xa is on record as “exhibit Factor Xa inhibitory activity”.

As for `Cl.O=C1[C@H](NS(=O)(=O)c2ccc3cc(Cl)ccc3c2)CCN1c1ccc2c(c1)CCNC2` [Example 16, 6-Chloro-N-[(3R)-2-oxo-1-(1,2,3,4-tetrahydro-6-isoquinolinyl)-3-pyrrolidinyl]-2-naphthalenesulfonamide hydrochloride], the “Factor Xa inhibitory activity” value at human Factor Xa is “exhibit Factor Xa inhibitory activity”. The “activity in prothrombin time (PT) test” value in the experiment with human plasma was “exhibit activity”.

For the molecule `Cl.O=C1[C@@H](NS(=O)(=O)/C=C/c2ccc(Cl)s2)CCN1c1ccc2c(c1F)CCNC2` [Example 18, (E)-2-(5-Chloro-2-thienyl)-N-[(3S)-1-(5-fluoro-1,2,3,4-tetrahydro-6-isoquinolinyl)-2-oxo-3-pyrrolidinyl]ethenesulfonamide hydrochloride], the “Factor Xa inhibitory activity” value on human Factor Xa was “exhibit Factor Xa inhibitory activity”. For the same molecule, the “activity in prothrombin time (PT) test” value in the experiment with human plasma is “exhibit activity”.

Consider `Cl.O=C1[C@@H](NS(=O)(=O)c2ccc3c(Cl)c[nH]c3c2)CCN1c1ccc2c(c1F)CCNC2` [Example 19, 3-Chloro-N-[(3S)-1-(5-fluoro-1,2,3,4-tetrahydro-6-isoquinolinyl)-2-oxo-3-pyrrolidinyl]-1H-indole-6-sulfonamide hydrochloride], for which the “Factor Xa inhibitory activity” value at human Factor Xa was “exhibit Factor Xa inhibitory activity”. The “activity in prothrombin time (PT) test” value in the experiment on human plasma is listed as “exhibit activity”.

Turning to `Cl.O=C1[C@@H](NS(=O)(=O)c2ccc3cc(Cl)ccc3c2)CCN1c1cc2c(cc1F)CNCC2` [Example 20, 6-Chloro-N-[1-(7-fluoro-1,2,3,4-tetrahydro-6-isoquinolinyl)-2-oxo-3-pyrrolidinyl]-2-naphthalenesulfonamide hydrochloride], the “Factor Xa inhibitory activity” value at human Factor Xa was “exhibit Factor Xa inhibitory activity”. Besides, the “activity in prothrombin time (PT) test” value with human plasma is given as “exhibit activity”.

Turning to `CN([C@H]1CCN(c2ccc3c(c2)CCNC3)C1=O)S(=O)(=O)/C=C/c1ccc(Cl)s1` [Example 34, (E)-2-(5-Chloro-2-thienyl)-N-methyl-N-[(3S)-2-oxo-1-(1,2,3,4-tetrahydro-6-isoquinolinyl)-3-pyrrolidinyl]ethenesulfonamide hydrochloride], at human Factor Xa, the Ki is less than 0.01 µM and the “Factor Xa inhibitory activity” value is reported as “exhibit Factor Xa inhibitory activity”.

Broadly, the Ki is the equilibrium dissociation constant of an inhibitor or competing ligand from its target. A high value points to lower affinity.

These data come from patent US20090099231A1, “3-Sulfonylamino-Pyrrolidine-2-One Derivatives as Factor Xa Inhibitors” (priority 2005, published 2009).
